According to the NIST ThermoML archive (doi:10.1016/j.fluid.2013.12.017):

Test: molar heat capacity at constant pressure
Settings: 101 kPa, Liquid, Small sample (50 mg) DSC

CCC(N)(CO)CO [2-amino-2-ethyl-1,3-propanediol]
Settings | molar heat capacity at constant pressure [J/K/mol]
303.15 K | 367.5
308.15 K | 370.5
313.15 K | 374.1
318.15 K | 378
323.15 K | 381.5
328.15 K | 385.8
333.15 K | 389.9
338.15 K | 393.9
343.15 K | 398.6
348.15 K | 403.1
353.15 K | 408.2
